14 compounds from US9586962B2, “Disubstituted octahydropyrrolo [3,4-C] pyrroles as orexin receptor modulators” (Janssen Pharmaceutica NV, priority 2011, dated 2017) can be followed below.

This assay deals with human orexin 2 receptor (Homo sapiens (Human), UniProt O43614). Description: Human orexin 2 receptor Ca2+ mobilization assay (FLIPR, PFSK cells, orexin B 100 nM). In kind it is cell-based. To be noted: modified Cheng-Prusoff correction, read-out: OR 2 Kb. The procedure:
Human Orexin 2 Receptor Ca^2+ Mobilization Assay
Cells were seeded on to 96-well Packard viewplates at a density of 50,000 cells/well and incubated overnight at 37° C., 5% CO2. The cells were dye-loaded with 4 μM Ca^2+ dye Fluo-3AM in serum-free DMEM/F-12 with 2.5 mM probenecid and incubated at 37° C., 5% CO2 for one hour. Cells were pre-incubated with compounds (diluted in DMEM/F-12) for 30 minutes before agonist (orexin B, 100 nM) stimulation. Ligand-induced Ca^2+ release was measured using a Fluorometric Imaging Plate Reader (FLIPR, Molecular Devices, Sunnyvale, Calif.). Functional responses were measured as peak fluorescence intensity minus basal. The concentration of agonist that produced a half-maximal response is represented by the EC50 value. Antagonistic potency values were converted to apparent pKB values using a modified Cheng-Prusoff correction. Apparent pKB=−log IC50/1+[conc agonist/EC50]. Data are expressed as mean±S.E.M, the designation of NT means not tested.
(A change in cytosolic calcium serves as a functional read-out for many receptors and channels.)

Molecules are shown by their SMILES.

Chain of human orexin 2 receptor (O43614 whole entry): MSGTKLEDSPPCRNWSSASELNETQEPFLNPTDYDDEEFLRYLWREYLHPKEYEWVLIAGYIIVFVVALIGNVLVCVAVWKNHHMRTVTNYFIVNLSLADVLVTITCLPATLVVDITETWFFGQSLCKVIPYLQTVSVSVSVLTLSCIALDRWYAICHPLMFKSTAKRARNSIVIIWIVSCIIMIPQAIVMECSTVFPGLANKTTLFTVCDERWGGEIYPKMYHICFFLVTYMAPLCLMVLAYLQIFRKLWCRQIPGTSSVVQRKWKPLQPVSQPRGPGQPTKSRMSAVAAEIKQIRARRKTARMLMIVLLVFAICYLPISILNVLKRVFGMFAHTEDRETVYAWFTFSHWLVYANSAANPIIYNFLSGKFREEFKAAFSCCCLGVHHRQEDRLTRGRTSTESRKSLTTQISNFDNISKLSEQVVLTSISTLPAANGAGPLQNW

Take `O=C(c1ccccc1-n1nccn1)N1CC2CN(c3nccc(-c4ccccc4)n3)CC2C1` (centres unmarked) [Example 131, 2-(4-Phenylpyrimidin-2-yl)-5-{[2-(2H-1,2,3-triazol-2-yl)phenyl]carbonyl}octahydro pyrrolo[3,4-c]pyrrole]: the Kb turned out to be 79 nM.

With `Cc1cc(C)nc(N2CC3CN(C(=O)c4nc(C)sc4-c4ccccc4F)CC3C2)n1` (centres unmarked) [Example 132, 2-(4,6-Dimethylpyrimidin-2-yl)-5-{[5-(2-fluorophenyl)-2-methyl-1,3-thiazol-4-yl]carbonyl}octahydropyrrolo[3,4-c]pyrrole], the Kb is 79 nM.

As for `Cc1cccc(N2CC3CN(C(=O)c4ccccc4-c4cccs4)CC3C2)n1` (centres unmarked) [Example 134, 2-(6-Methylpyridin-2-yl)-5-[(2-thiophen-2-ylphenyl)carbonyl]octahydropyrrolo[3,4-c]pyrrole], the Kb was determined as 12 nM.

Take `Cc1ccnc(N2CC3CN(C(=O)c4ccccc4-n4nccn4)CC3C2)n1` (centres unmarked) [Example 135, 2-(4-Methylpyrimidin-2-yl)-5-{[2-(2H-1,2,3-triazol-2-yl)phenyl]carbonyl}octahydro pyrrolo[3,4-c]pyrrole]: the Kb stood at 40 nM.

On to `Cc1ccnc(N2CC3CN(C(=O)c4ccccc4-c4cccs4)CC3C2)c1` (centres unmarked) [Example 136, 2-(4-Methylpyridin-2-yl)-5-[(2-thiophen-2-ylphenyl)carbonyl]octahydropyrrolo[3,4-c]pyrrole], for which the Kb turned out to be 50 nM.

As to `COc1cccc(N2CC3CN(C(=O)c4ccccc4-c4cccs4)CC3C2)n1` (centres unmarked) [Example 137, 2-(6-Methoxypyridin-2-yl)-5-[(2-thiophen-2-ylphenyl)carbonyl]octahydro pyrrolo[3,4-c]pyrrole], the Kb amounted to 25 nM.

As for `COc1cc(OC)nc(N2CC3CN(C(=O)c4ccccc4-c4cccs4)CC3C2)n1` (centres unmarked) [Example 138, 2-(4,6-Dimethoxypyrimidin-2-yl)-5-[(2-thiophen-2-ylphenyl)carbonyl]octahydro pyrrolo[3,4-c]pyrrole], the Kb amounted to 40 nM.

In the case of `O=C(c1ccccc1-c1cccs1)N1CC2CN(c3nc4ccccc4o3)CC2C1` (centres unmarked) [Example 139, 2-{5-[(2-Thiophen-2-ylphenyl)carbonyl]hexahydropyrrolo[3,4-c]pyrrol-2(1H)-yl}-1,3-benzoxazole], the Kb worked out at 63 nM.

Turning to `O=C(c1ccccc1-n1nccn1)N1CC2CN(c3nccc(-c4cccs4)n3)CC2C1` (centres unmarked) [Example 143, 2-(4-Thiophen-2-ylpyrimidin-2-yl)-5-{[2-(2H-1,2,3-triazol-2-yl)phenyl]carbonyl}octahydropyrrolo[3,4-c]pyrrole], the Kb was 79 nM.

Take `O=C(c1ccccc1-n1nccn1)N1CC2CN(c3nc4ccccc4o3)CC2C1` (centres unmarked) [Example 144, 2-[5-{[2-(2H-1,2,3-Triazol-2-yl)phenyl]carbonyl}hexahydropyrrolo[3,4-c]pyrrol-2(1H)-yl]-1,3-benzoxazole]: the Kb worked out at 63 nM.

As to `CCOc1ccc2ccccc2c1C(=O)N1CC2CN(c3cnc4ccccc4n3)CC2C1` (centres unmarked) [Example 145, 2-{5-[(2-Ethoxynaphthalen-1-yl)carbonyl]hexahydropyrrolo[3,4-c]pyrrol-2(1H)-yl}quinoxaline], the Kb worked out at 32 nM.

For the compound `O=C(c1cc(F)ccc1-c1ncccn1)N1CC2CN(c3cnc4ccccc4n3)CC2C1` (centres unmarked) [Example 146, 2-{5-[(5-Fluoro-2-pyrimidin-2-ylphenyl)carbonyl]hexahydropyrrolo[3,4-c]pyrrol-2(1H)-yl}quinoxaline], the Kb was 16 nM.

As for `CCOc1cccc(N2CC3CN(C(=O)c4ccccc4-n4nccn4)CC3C2)n1` (centres unmarked) [Example 147, 2-(6-Ethoxypyridin-2-yl)-5-{[2-(2H-1,2,3-triazol-2-yl)phenyl]carbonyl}octahydro pyrrolo[3,4-c]pyrrole], the Kb was found to be 63 nM.

Take `COc1ccnc(N2CC3CN(C(=O)c4cc(F)ccc4-c4ncccn4)CC3C2)n1` (centres unmarked) [Example 150, 2-[(5-Fluoro-2-pyrimidin-2-ylphenyl)carbonyl]-5-(4-methoxypyrimidin-2-yl)octahydropyrrolo[3,4-c]pyrrole]: the Kb is 40 nM.
